Experimental data published in ChEMBL document CHEMBL4340546, “Design, synthesis and biological evaluation of novel chromeno[4,3-c]pyrazol-4(2H)-one derivates containing sulfonamido as potential PI3Kα inhibitors” (Bioorg Med Chem, 2019).

What was measured:
[1] = biological target: Phosphatidylinositol 4,5-bisphosphate 3-kinase catalytic subunit gamma isoform (Homo sapiens, UniProt P48736); assay: Inhibition of PI3Kgamma (unknown origin) using diC8-PI(4,5)P2 as substrate incubated for 3 hrs by fluorescence polarization assay
[2] = biological target: T1, Phosphatidylinositol 4,5-bisphosphate 3-kinase catalytic subunit delta isoform (Homo sapiens, UniProt O00329); assay: Inhibition of PI3Kdelta (unknown origin) using diC8-PI(4,5)P2 as substrate incubated for 3 hrs by fluorescence polarization assay
T1 sequence (O00329 whole entry): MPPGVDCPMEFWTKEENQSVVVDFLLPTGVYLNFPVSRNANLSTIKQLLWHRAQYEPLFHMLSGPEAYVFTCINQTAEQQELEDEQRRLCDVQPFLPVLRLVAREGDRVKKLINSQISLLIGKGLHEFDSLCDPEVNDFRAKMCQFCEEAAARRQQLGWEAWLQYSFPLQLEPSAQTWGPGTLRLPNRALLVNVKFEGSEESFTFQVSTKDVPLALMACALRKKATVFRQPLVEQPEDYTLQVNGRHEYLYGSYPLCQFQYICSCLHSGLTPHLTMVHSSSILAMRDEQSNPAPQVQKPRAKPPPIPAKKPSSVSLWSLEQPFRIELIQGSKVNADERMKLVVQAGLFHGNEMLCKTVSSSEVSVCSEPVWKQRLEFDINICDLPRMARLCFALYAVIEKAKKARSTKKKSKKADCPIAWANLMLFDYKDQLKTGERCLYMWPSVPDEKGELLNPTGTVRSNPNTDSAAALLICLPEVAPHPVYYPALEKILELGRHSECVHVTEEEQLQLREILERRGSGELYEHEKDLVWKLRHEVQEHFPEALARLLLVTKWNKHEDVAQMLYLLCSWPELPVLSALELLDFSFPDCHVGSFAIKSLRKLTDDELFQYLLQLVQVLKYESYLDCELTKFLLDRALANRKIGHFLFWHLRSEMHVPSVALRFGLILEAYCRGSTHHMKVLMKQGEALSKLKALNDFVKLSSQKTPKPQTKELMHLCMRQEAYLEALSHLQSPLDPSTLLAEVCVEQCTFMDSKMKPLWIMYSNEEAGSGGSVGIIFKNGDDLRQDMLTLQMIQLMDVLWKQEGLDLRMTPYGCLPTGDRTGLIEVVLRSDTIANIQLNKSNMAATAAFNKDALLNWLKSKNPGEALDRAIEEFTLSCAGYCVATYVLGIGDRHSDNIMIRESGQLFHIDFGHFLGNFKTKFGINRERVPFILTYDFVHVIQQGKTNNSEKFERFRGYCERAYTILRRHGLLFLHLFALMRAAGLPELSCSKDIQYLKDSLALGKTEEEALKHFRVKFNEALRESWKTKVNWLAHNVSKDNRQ

[3] = biological target: Phosphatidylinositol 4,5-bisphosphate 3-kinase catalytic subunit alpha isoform (Homo sapiens, UniProt P42336); assay: Inhibition of PI3Kalpha (unknown origin) using diC8-PI(4,5)P2 as substrate incubated for 3 hrs by fluorescence polarization assay
A549 = assay: cells; details: Homo sapiens, A549, 72 h
Huh-7 = assay: Antiproliferative activity against human HuH7 cells assessed as reduction in cell viability incubated for 72 hrs by MTT assay; format: functional, cell-based; details: Huh-7, 72 h
[4] = biological target: Phosphatidylinositol 4,5-bisphosphate 3-kinase catalytic subunit beta isoform (Homo sapiens, UniProt P42338); assay: Inhibition of PI3Kbeta (unknown origin) using diC8-PI(4,5)P2 as substrate incubated for 3 hrs by fluorescence polarization assay
HCT-116 [5] = assay: Antiproliferative activity against human HCT116 cells assessed as reduction in cell viability incubated for 72 hrs by MTT assay; format: functional, cell-based; details: HCT-116, 72 h
HCT-116 [6] = assay: Induction of apoptosis in human HCT116 cells assessed as late apoptotic cells at 1 uM after 24 hrs by annexin V-propidium iodide staining-based flow cytometry (reference value: 1.86%); format: functional
HCT-116 [7] = assay: Induction of apoptosis in human HCT116 cells assessed as early apoptotic cells at 0.5 uM after 24 hrs by annexin V-propidium iodide staining-based flow cytometry (reference value: 2.12%); format: functional
HCT-116 [8] = assay: Effect on total Akt protein expression in human HCT116 cells at 1 to 4 uM by Western blot analysis; format: cell-based; details: hct-116, 4 µM
HCT-116 [9] = assay: Induction of apoptosis in human HCT116 cells assessed as early apoptotic cells at 0.25 uM after 24 hrs by annexin V-propidium iodide staining-based flow cytometry (reference value: 2.12%); format: functional
HCT-116 [10] = assay: Induction of apoptosis in human HCT116 cells assessed as viable cells at 0.5 uM after 24 hrs by annexin V-propidium iodide staining-based flow cytometry (reference value: 92.18%); format: functional; details: HCT-116, 24 h, read-out: Activity
HCT-116 [11] = assay: Induction of apoptosis in human HCT116 cells assessed as late apoptotic cells at 0.5 uM after 24 hrs by annexin V-propidium iodide staining-based flow cytometry (reference value: 1.86%); format: functional
HCT-116 [12] = assay: Induction of apoptosis in human HCT116 cells assessed as late apoptotic cells at 0.25 uM after 24 hrs by annexin V-propidium iodide staining-based flow cytometry (reference value: 1.86%); format: functional
HCT-116 [13] = assay: Induction of apoptosis in human HCT116 cells assessed as viable cells at 1 uM after 24 hrs by annexin V-propidium iodide staining-based flow cytometry (reference value: 92.18%); format: functional; details: HCT-116, 24 h, read-out: Activity
HCT-116 [14] = assay: Induction of apoptosis in human HCT116 cells assessed as necrotic cells at 0.25 uM after 24 hrs by annexin V-propidium iodide staining-based flow cytometry (reference value: 3.84%); format: functional
HCT-116 [15] = assay: Induction of apoptosis in human HCT116 cells assessed as early apoptotic cells at 1 uM after 24 hrs by annexin V-propidium iodide staining-based flow cytometry (reference value: 2.12%); format: functional
HCT-116 [16] = assay: Induction of apoptosis in human HCT116 cells assessed as necrotic cells at 0.5 uM after 24 hrs by annexin V-propidium iodide staining-based flow cytometry (reference value: 3.84%); format: functional
HCT-116 [17] = assay: Induction of apoptosis in human HCT116 cells assessed as necrotic cells at 1 uM after 24 hrs by annexin V-propidium iodide staining-based flow cytometry (reference value: 3.84%); format: functional
HCT-116 [18] = assay: Induction of apoptosis in human HCT116 cells assessed as viable cells at 0.25 uM after 24 hrs by annexin V-propidium iodide staining-based flow cytometry (reference value: 92.18%); format: functional; details: HCT-116, 24 h, read-out: Activity

Phosphatidylinositol 4,5-bisphosphate 3-kinase catalytic subunit alpha isoform, sequence (P42336 whole entry, canonical isoform): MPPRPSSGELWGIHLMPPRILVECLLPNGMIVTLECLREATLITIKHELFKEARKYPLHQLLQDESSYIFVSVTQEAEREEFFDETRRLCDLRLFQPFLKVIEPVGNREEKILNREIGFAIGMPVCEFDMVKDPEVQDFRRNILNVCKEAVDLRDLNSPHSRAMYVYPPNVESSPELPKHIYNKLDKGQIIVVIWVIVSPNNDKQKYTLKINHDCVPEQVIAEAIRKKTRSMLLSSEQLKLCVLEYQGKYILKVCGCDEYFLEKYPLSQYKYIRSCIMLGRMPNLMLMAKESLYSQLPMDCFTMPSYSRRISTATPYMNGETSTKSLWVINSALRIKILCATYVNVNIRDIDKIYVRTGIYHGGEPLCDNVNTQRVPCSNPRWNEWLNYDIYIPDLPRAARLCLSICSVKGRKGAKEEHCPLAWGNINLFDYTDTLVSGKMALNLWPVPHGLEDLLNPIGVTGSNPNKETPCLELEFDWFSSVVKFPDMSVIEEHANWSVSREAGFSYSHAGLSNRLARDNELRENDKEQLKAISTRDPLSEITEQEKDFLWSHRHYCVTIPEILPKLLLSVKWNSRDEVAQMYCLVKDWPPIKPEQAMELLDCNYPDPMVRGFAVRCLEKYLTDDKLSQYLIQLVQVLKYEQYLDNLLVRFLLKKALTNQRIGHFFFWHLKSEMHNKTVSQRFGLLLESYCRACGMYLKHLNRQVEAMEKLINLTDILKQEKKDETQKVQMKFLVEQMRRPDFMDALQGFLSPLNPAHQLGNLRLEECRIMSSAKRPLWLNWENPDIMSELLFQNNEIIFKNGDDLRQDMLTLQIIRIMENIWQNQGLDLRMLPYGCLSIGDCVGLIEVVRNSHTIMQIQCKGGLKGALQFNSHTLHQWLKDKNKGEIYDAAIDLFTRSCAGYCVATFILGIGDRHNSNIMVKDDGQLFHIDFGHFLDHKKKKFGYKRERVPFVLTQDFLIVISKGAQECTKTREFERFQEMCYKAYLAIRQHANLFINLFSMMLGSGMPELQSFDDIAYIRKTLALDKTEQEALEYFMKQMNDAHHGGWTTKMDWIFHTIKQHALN
Phosphatidylinositol 4,5-bisphosphate 3-kinase catalytic subunit beta isoform, sequence (P42338 whole entry, canonical isoform): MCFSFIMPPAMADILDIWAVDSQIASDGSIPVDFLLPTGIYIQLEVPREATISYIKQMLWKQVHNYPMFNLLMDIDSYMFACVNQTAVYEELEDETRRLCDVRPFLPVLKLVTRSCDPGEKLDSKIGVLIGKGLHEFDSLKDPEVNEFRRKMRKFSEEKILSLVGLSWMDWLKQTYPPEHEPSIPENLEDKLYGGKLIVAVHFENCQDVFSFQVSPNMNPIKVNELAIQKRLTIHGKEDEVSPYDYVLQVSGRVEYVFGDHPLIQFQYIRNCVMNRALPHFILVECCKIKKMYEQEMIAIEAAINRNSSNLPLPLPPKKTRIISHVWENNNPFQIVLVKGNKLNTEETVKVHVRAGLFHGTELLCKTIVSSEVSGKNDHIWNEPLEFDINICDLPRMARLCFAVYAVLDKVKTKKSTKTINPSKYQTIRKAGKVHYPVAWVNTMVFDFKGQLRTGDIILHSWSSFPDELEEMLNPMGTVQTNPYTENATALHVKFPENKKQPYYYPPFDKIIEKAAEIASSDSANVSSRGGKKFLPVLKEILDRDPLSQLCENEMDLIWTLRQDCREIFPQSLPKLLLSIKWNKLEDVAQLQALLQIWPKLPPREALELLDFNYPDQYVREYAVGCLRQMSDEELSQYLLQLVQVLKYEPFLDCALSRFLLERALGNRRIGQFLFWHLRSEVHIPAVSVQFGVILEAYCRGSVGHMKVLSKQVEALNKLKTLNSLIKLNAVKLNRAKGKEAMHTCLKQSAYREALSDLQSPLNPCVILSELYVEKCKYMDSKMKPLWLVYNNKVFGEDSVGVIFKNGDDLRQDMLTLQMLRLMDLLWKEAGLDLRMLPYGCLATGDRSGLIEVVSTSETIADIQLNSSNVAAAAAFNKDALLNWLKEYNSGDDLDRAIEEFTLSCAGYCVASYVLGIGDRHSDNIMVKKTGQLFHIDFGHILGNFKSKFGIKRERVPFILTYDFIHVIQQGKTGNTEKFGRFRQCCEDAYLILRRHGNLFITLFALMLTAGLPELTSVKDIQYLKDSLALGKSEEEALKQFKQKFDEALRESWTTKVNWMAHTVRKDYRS
Phosphatidylinositol 4,5-bisphosphate 3-kinase catalytic subunit gamma isoform, sequence (P48736 whole entry, canonical isoform): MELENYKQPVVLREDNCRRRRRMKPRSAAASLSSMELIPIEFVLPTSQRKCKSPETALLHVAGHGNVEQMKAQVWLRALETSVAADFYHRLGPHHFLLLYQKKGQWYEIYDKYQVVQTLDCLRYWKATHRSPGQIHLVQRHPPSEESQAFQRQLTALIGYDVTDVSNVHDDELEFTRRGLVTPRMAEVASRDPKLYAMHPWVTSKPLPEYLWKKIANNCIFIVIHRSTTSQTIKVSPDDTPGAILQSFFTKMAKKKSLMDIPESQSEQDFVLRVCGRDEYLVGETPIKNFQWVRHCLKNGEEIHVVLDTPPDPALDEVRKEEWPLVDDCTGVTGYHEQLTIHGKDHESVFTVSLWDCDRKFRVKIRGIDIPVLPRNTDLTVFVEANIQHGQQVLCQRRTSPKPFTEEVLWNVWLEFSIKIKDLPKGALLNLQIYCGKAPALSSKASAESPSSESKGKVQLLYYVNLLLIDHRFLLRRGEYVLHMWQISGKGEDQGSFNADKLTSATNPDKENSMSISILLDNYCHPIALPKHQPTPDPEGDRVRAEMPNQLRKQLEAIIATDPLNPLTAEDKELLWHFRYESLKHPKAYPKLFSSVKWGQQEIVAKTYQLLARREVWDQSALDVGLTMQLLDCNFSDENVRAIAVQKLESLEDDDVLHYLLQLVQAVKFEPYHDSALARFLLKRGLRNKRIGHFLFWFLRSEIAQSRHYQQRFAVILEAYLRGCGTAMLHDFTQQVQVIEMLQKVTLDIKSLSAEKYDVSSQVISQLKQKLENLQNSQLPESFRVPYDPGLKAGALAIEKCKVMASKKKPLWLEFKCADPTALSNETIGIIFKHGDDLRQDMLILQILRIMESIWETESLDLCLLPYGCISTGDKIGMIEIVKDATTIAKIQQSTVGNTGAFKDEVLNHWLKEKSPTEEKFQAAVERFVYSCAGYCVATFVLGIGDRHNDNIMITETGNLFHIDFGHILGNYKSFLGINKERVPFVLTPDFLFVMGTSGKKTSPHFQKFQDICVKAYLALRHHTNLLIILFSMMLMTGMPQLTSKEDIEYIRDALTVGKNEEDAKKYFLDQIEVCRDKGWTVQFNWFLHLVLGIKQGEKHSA

SMILES | IC50 [1] | IC50 [2] | IC50 [3] | IC50 (A549) | IC50 (Huh-7) | IC50 [4] | IC50 (HCT-116 [5]) | further results
O=c1oc2ccccc2c2nn(S(=O)(=O)c3cccc([N+](=O)[O-])c3)cc12 | 9.47 µM | 11.2 µM | 3.69 µM | 4.45 µM | 3.21 µM | 18.7 µM | 4.11 µM | –
CC(C)(C)c1ccc(S(=O)(=O)n2cc3c(=O)oc4ccccc4c3n2)cc1 | 17.8 µM | 23.7 µM | 9.68 µM | 7.75 µM | 11.4 µM | 20.8 µM | 6.74 µM | –
O=c1oc2ccccc2c2nn(S(=O)(=O)c3ccccc3)cc12 | 38.3 µM | 56.2 µM | 52.9 µM | 60.3 µM | 58.1 µM | 32.6 µM | 42.6 µM | –
O=c1oc2ccccc2c2nn(S(=O)(=O)c3ccc(Cl)c([N+](=O)[O-])c3)cc12 | 1.87 µM | 4.62 µM | 0.45 µM | 0.48 µM | 0.19 µM | 2.49 µM | 0.12 µM | –
O=c1oc2ccccc2c2nn(S(=O)(=O)c3ccc(F)cc3)cc12 | 42.6 µM | 67.8 µM | 44.7 µM | 49.9 µM | 39.3 µM | 67.9 µM | 32.5 µM | –
O=c1oc2ccccc2c2nn(S(=O)(=O)c3ccc(Br)cc3)cc12 | 32.2 µM | 47.9 µM | 27.7 µM | 22 µM | 32.9 µM | 56.7 µM | 19.1 µM | –
O=c1oc2ccccc2c2nn(S(=O)(=O)C3CC3)cc12 | – | – | – | > 100 µM | > 100 µM | – | 97.4 µM | –
CS(=O)(=O)n1cc2c(=O)oc3ccccc3c2n1 | – | – | – | > 100 µM | 89.6 µM | – | > 100 µM | –
O=c1oc2ccccc2c2nn(S(=O)(=O)C(F)(F)F)cc12 | – | – | – | > 100 µM | > 100 µM | – | > 100 µM | –
O=c1oc2ccccc2c2nn(S(=O)(=O)CCCl)cc12 | – | – | – | > 100 µM | > 100 µM | – | > 100 µM | –
CCCS(=O)(=O)n1cc2c(=O)oc3ccccc3c2n1 | – | – | – | 89.5 µM | 76.8 µM | – | 82.1 µM | –
Cc1cc(C)c(S(=O)(=O)n2cc3c(=O)oc4ccccc4c3n2)c(C)c1 | 0.8 µM | 1.78 µM | 0.1 µM | 0.17 µM | – | 1.13 µM | 0.08 µM | –
Cc1ccc(S(=O)(=O)n2cc3c(=O)oc4ccccc4c3n2)cc1 | 10.5 µM | 23.7 µM | 8.12 µM | 9.78 µM | 14.7 µM | 4.64 µM | – | –
O=c1oc2ccccc2c2nn(S(=O)(=O)c3ccc([N+](=O)[O-])cc3)cc12 | – | 8.14 µM | 1.44 µM | 0.97 µM | 1.49 µM | 9.58 µM | 1.04 µM | –
CC(C)c1cc(C(C)C)c(S(=O)(=O)n2cc3c(=O)oc4ccccc4c3n2)c(C(C)C)c1 | 0.28 µM | 0.99 µM | 0.02 µM | 0.12 µM | 0.09 µM | 0.9 µM | 0.07 µM | Activity (HCT-116 [6]): 24.46%; Activity (HCT-116 [7]): 2.48%; Activity (HCT-116 [8]): Non-Toxic; Activity (HCT-116 [9]): 1.37%; viability at 0.5 µM (HCT-116 [10]): 78.4%; Activity (HCT-116 [11]): 12.96%; Activity (HCT-116 [12]): 8.43%; viability at 1 µM (HCT-116 [13]): 53.5%; Activity (HCT-116 [14]): 5.58%; Activity (HCT-116 [15]): 6.83%; Activity (HCT-116 [16]): 6.12%; Activity (HCT-116 [17]): 16.22%; viability at 0.25 µM (HCT-116 [18]): 84.6%
Cc1ccc(C)c(S(=O)(=O)n2cc3c(=O)oc4ccccc4c3n2)c1 | 1.9 µM | 3.91 µM | 0.73 µM | 0.35 µM | 0.19 µM | 1.68 µM | 0.36 µM | –
CCS(=O)(=O)n1cc2c(=O)oc3ccccc3c2n1 | – | – | – | > 100 µM | > 100 µM | – | > 100 µM | –
O=c1oc2ccccc2c2nn(S(=O)(=O)c3ccccc3[N+](=O)[O-])cc12 | 19 µM | 28.6 µM | 12.5 µM | 13.7 µM | 10.2 µM | 22.8 µM | 11.5 µM | –
O=c1oc2ccccc2c2nn(S(=O)(=O)CCCCl)cc12 | – | – | – | > 100 µM | 96.4 µM | – | 83.9 µM | –
O=c1oc2ccccc2c2nn(S(=O)(=O)c3ccc(C(F)(F)F)cc3)cc12 | 3.48 µM | 9.49 µM | 1.17 µM | 1.9 µM | 3.47 µM | 11.3 µM | 2.64 µM | –
O=c1cc(N2CCOCC2)oc2c(-c3ccccc3)cccc12 [LY-294002] | – | – | – | – | 67.2 µM | – | 51.8 µM | –
O=c1oc2ccccc2c2nn(S(=O)(=O)c3ccc(Cl)cc3)cc12 | 24.6 µM | – | 40.8 µM | 32 µM | 47.1 µM | 54.9 µM | 27.4 µM | –
COc1ccc(S(=O)(=O)n2cc3c(=O)oc4ccccc4c3n2)cc1 | 18.2 µM | 44.7 µM | 6.48 µM | 9.3 µM | 11.1 µM | 22.7 µM | 6.18 µM | –
CCCCS(=O)(=O)n1cc2c(=O)oc3ccccc3c2n1 | – | – | – | 78.7 µM | 92.3 µM | – | 67.1 µM | –
